Results reported in the supplement of paper PMC10307832.

Legend:
Assay in all cases: relative viability (nuclei count vs DMSO), 5 days (fraction); higher = more cells survive
HCC-44 = tested on: HCC-44
Outline: (§1)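 For relative viability, nuclei counts in treated wells were divided by those in vehicle wells. Lung cancer cell lines had been pin-tool dosed in 1536-well plates the day after seeding and cultured for 5 days, then fixed and stained in one step (final 0.05% Triton X-100, 1% formaldehyde, 1 ug/ml Hoechst) and imaged at 4×. Doses were one drug alone or a fixed anchor-drug dose plus five library-drug doses (not always all listed) in √10 steps, and values are duplicate-plate medians.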

NCI-H650 = tested on: NCI-H650
Outline: as §1

HCC-15 = tested on: HCC-15
Outline: as §1

NCI-H1437 = tested on: NCI-H1437
Outline: as §1

A-427 = tested on: A-427
Outline: as §1

BEN = tested on: BEN
Outline: as §1

SW 900 = tested on: SW 900
Outline: as §1

SK-MES-1 = tested on: SK-MES-1
Outline: as §1

HARA = tested on: HARA
Outline: as §1

NCI-H1792 = tested on: NCI-H1792
Outline: as §1

EKVX = tested on: EKVX
Outline: as §1

NCI-H358 = tested on: NCI-H358
Outline: as §1

HCC-827 = tested on: HCC-827
Outline: as §1

NCI-H23 = tested on: NCI-H23
Outline: as §1

201T = tested on: 201T
Outline: as §1

NCI-H1975 = tested on: NCI-H1975
Outline: as §1

COR-L23 = tested on: COR-L23
Outline: as §1

NCI-H441 = tested on: NCI-H441
Outline: as §1

NCI-H1650 = tested on: NCI-H1650
Outline: as §1

NCI-H596 = tested on: NCI-H596
Outline: as §1

NCI-H2342 = tested on: NCI-H2342
Outline: as §1

NCI-H838 = tested on: NCI-H838
Outline: as §1

## COc1cc2nccc(Oc3ccc(NC(=O)Nc4cc(C)on4)c(Cl)c3)c2cc1OC [Tivozanib] + Nc1nc2[nH]cc(CCc3ccc(C(=O)N[C@@H](CCC(=O)O)C(=O)O)cc3)c2c(=O)[nH]1 [Pemetrexed] (partner 0.2 µM)
HCC-44; first compound 0.005 µM
  relative viability: 0.651
HCC-44; first compound 0.01581 µM
  relative viability: 0.62
HCC-44; first compound 0.05 µM
  relative viability: 0.687
HCC-44; first compound 0.1581 µM
  relative viability: 0.802
HCC-44; first compound 0.5 µM
  relative viability: 0.627
NCI-H650; first compound 0.005 µM
  relative viability: 0.892
NCI-H650; first compound 0.01581 µM
  relative viability: 0.98
NCI-H650; first compound 0.05 µM
  relative viability: 0.879
NCI-H650; first compound 0.1581 µM
  relative viability: 0.679
NCI-H650; first compound 0.5 µM
  relative viability: 0.734
HCC-15; first compound 0.005 µM
  relative viability: 0.21
HCC-15; first compound 0.01581 µM
  relative viability: 0.224
HCC-15; first compound 0.05 µM
  relative viability: 0.235
HCC-15; first compound 0.1581 µM
  relative viability: 0.226
HCC-15; first compound 0.5 µM
  relative viability: 0.238
NCI-H1437; first compound 0.005 µM
  relative viability: 0.251
NCI-H1437; first compound 0.01581 µM
  relative viability: 0.287
NCI-H1437; first compound 0.05 µM
  relative viability: 0.366
NCI-H1437; first compound 0.1581 µM
  relative viability: 0.313
NCI-H1437; first compound 0.5 µM
  relative viability: 0.31
A-427; first compound 0.005 µM
  relative viability: 0.973
A-427; first compound 0.01581 µM
  relative viability: 0.952
A-427; first compound 0.05 µM
  relative viability: 0.961
A-427; first compound 0.1581 µM
  relative viability: 0.926
A-427; first compound 0.5 µM
  relative viability: 0.979
BEN; first compound 0.005 µM
  relative viability: 0.647
BEN; first compound 0.01581 µM
  relative viability: 0.858
BEN; first compound 0.05 µM
  relative viability: 0.834
BEN; first compound 0.1581 µM
  relative viability: 0.397
BEN; first compound 0.5 µM
  relative viability: 0.689
SW 900; first compound 0.005 µM
  relative viability: 0.463
SW 900; first compound 0.01581 µM
  relative viability: 0.465
SW 900; first compound 0.05 µM
  relative viability: 0.507
SW 900; first compound 0.5 µM
  relative viability: 0.493
SK-MES-1; first compound 0.005 µM
  relative viability: 0.89
SK-MES-1; first compound 0.01581 µM
  relative viability: 0.956
SK-MES-1; first compound 0.05 µM
  relative viability: 1.13
SK-MES-1; first compound 0.1581 µM
  relative viability: 0.948
SK-MES-1; first compound 0.5 µM
  relative viability: 0.994
HARA; first compound 0.005 µM
  relative viability: 0.275
HARA; first compound 0.01581 µM
  relative viability: 0.259
HARA; first compound 0.05 µM
  relative viability: 0.249
HARA; first compound 0.1581 µM
  relative viability: 0.243
HARA; first compound 0.5 µM
  relative viability: 0.245
NCI-H1792; first compound 0.005 µM
  relative viability: 0.865
NCI-H1792; first compound 0.01581 µM
  relative viability: 0.792
NCI-H1792; first compound 0.05 µM
  relative viability: 1.02
NCI-H1792; first compound 0.5 µM
  relative viability: 1
EKVX; first compound 0.005 µM
  relative viability: 0.377
EKVX; first compound 0.01581 µM
  relative viability: 0.408
EKVX; first compound 0.05 µM
  relative viability: 0.394
EKVX; first compound 0.1581 µM
  relative viability: 0.432
EKVX; first compound 0.5 µM
  relative viability: 0.355
NCI-H358; first compound 0.005 µM
  relative viability: 0.181
NCI-H358; first compound 0.01581 µM
  relative viability: 0.18
NCI-H358; first compound 0.05 µM
  relative viability: 0.161
NCI-H358; first compound 0.1581 µM
  relative viability: 0.175
NCI-H358; first compound 0.5 µM
  relative viability: 0.176
HCC-827; first compound 0.005 µM
  relative viability: 0.266
HCC-827; first compound 0.01581 µM
  relative viability: 0.255
HCC-827; first compound 0.05 µM
  relative viability: 0.242
HCC-827; first compound 0.1581 µM
  relative viability: 0.259
HCC-827; first compound 0.5 µM
  relative viability: 0.253
NCI-H23; first compound 0.005 µM
  relative viability: 0.588
NCI-H23; first compound 0.01581 µM
  relative viability: 0.771
NCI-H23; first compound 0.05 µM
  relative viability: 0.787
NCI-H23; first compound 0.5 µM
  relative viability: 0.54
201T; first compound 0.005 µM
  relative viability: 0.314
201T; first compound 0.01581 µM
  relative viability: 0.319
201T; first compound 0.05 µM
  relative viability: 0.351
201T; first compound 0.1581 µM
  relative viability: 0.351
201T; first compound 0.5 µM
  relative viability: 0.367
NCI-H1975; first compound 0.005 µM
  relative viability: 0.271
NCI-H1975; first compound 0.01581 µM
  relative viability: 0.285
NCI-H1975; first compound 0.05 µM
  relative viability: 0.283
NCI-H1975; first compound 0.1581 µM
  relative viability: 0.332
NCI-H1975; first compound 0.5 µM
  relative viability: 0.294
COR-L23; first compound 0.005 µM
  relative viability: 0.193
COR-L23; first compound 0.01581 µM
  relative viability: 0.192
COR-L23; first compound 0.05 µM
  relative viability: 0.203
COR-L23; first compound 0.1581 µM
  relative viability: 0.206
COR-L23; first compound 0.5 µM
  relative viability: 0.199
NCI-H441; first compound 0.005 µM
  relative viability: 0.245
NCI-H441; first compound 0.01581 µM
  relative viability: 0.296
NCI-H441; first compound 0.05 µM
  relative viability: 0.246
NCI-H441; first compound 0.1581 µM
  relative viability: 0.249
NCI-H441; first compound 0.5 µM
  relative viability: 0.239
NCI-H1650; first compound 0.005 µM
  relative viability: 0.362
NCI-H1650; first compound 0.01581 µM
  relative viability: 0.342
NCI-H1650; first compound 0.05 µM
  relative viability: 0.384
NCI-H1650; first compound 0.1581 µM
  relative viability: 0.309
NCI-H1650; first compound 0.5 µM
  relative viability: 0.354
NCI-H596; first compound 0.005 µM
  relative viability: 0.492
NCI-H596; first compound 0.01581 µM
  relative viability: 0.502
NCI-H596; first compound 0.05 µM
  relative viability: 0.51
NCI-H596; first compound 0.5 µM
  relative viability: 0.508
NCI-H2342; first compound 0.005 µM
  relative viability: 0.753
NCI-H2342; first compound 0.01581 µM
  relative viability: 0.754
NCI-H2342; first compound 0.05 µM
  relative viability: 0.802
NCI-H2342; first compound 0.5 µM
  relative viability: 0.757
NCI-H838; first compound 0.005 µM
  relative viability: 0.242
NCI-H838; first compound 0.01581 µM
  relative viability: 0.253
NCI-H838; first compound 0.05 µM
  relative viability: 0.252
NCI-H838; first compound 0.1581 µM
  relative viability: 0.257
NCI-H838; first compound 0.5 µM
  relative viability: 0.22
